Measured values: patent US4298739A, “Novel carbostyril derivatives” (priority 1977, dated 1981)

Legend:
[1] = molecular target: T1, cyclic AMP phosphodiesterase (Oryctolagus cuniculus, UniProt G1ST54); experiment: Obstructive action against cyclic AMP phosphodiesterase; type: biochemical, rabbit; conditions: 1.0 μmol cyclic AMP, pH 8.0, 30° C., read-out: phosphodiesterase obstruction rate
T1 construct: the supernatant was collected to use it as a crude enzyme solution; from tissue; host or cells: rabbit platelets (from platelet-rich plasma), 100,000 xg supernatant, DEAE-cellulose fraction
T1 sequence (G1ST54 1-1128): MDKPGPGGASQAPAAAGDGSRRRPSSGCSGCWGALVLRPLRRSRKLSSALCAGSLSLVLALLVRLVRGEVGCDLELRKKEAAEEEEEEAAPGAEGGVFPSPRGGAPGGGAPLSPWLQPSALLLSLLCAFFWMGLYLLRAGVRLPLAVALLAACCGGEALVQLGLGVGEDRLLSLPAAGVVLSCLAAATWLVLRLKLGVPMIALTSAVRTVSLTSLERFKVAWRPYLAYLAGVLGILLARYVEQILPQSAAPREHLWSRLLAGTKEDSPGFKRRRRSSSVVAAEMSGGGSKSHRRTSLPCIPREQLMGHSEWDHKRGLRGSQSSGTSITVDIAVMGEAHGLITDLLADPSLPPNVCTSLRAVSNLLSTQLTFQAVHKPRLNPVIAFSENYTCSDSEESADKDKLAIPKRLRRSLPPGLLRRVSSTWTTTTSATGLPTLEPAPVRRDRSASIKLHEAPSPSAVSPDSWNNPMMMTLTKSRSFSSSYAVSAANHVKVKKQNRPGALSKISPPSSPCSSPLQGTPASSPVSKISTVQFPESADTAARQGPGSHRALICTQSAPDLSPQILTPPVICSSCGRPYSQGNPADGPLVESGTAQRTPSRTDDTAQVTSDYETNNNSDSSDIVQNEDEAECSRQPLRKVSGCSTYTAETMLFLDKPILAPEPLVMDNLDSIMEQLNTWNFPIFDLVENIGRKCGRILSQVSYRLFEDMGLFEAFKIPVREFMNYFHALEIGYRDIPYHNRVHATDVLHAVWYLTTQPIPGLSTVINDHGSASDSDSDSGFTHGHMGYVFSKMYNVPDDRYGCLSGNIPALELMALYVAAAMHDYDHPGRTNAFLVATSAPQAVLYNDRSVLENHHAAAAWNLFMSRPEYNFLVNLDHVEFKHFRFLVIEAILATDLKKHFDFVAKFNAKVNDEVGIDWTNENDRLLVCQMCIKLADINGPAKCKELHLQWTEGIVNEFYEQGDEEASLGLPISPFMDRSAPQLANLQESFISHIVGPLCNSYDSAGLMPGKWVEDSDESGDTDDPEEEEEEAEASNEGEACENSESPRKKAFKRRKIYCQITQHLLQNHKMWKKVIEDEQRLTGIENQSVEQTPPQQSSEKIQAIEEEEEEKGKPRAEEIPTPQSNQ
Method: The obstructive action against cyclic AMP phosphodiesterase was measured according to the activity measuring method described in "Biochimica et Biophysica Acta", Vol. 429, pp. 485-497 (1976) and "Biochemical Medicine", Vol. 10, pp. 301-311 (1974).
That is, for determining the obstructive activity against cyclic AMP phosphodiesterase, 10 ml of a solution obtained by adding 1 mmol of MgCl2 into 50 mmol of tris-hydrochloric acid buffer with pH 7.4 was added to the platelets obtained by further centrifuging the abovesaid rabbit PRP at 3,000 r.p.m. for 10 minutes, and the suspended platelets were ground by a Teflon potter type homogenizer. This was followed by two times of freezing and thawing treatment and 300-second fracturing with 200 watt supersonic waves. After additional 60-minute centrifugation with 100,000 xg, the supernatant was collected to use it as a crude enzyme solution.
10 Milliliters of this crude buffer solution was added to a 1.5×20 cm DEAE-cellulose column which has previously been buffered with 50 mmol of tris-acetate buffer (pH 6.0), followed by washing and elution with 30 ml of 50 mmol tris-acetate buffer, and this buffer solution was subjected to linear gradient elution with 0 to 0.5 moles of sodium acetate-tris-acetatebuffer. The flow rate was 0.5 ml/min, and 5 ml of each fraction was batched out. […] This fraction was used as cyclic AMP phosphodiesterase.
0.1 Milliliter of an aqueous solution of each test compound of a specified concentration was mixed with 40 mmol of tris-hydrochloric acid buffer (pH 8.0, containing 50 μg of cow serum albumin and 4 mmol of MgCl2) containing predetermined 1.0 μmol of cyclic AMP (tritium cyclic AMP), and 0.2 ml of this mixed solution was used as substrate solution.
0.2 Milliliter of the above-prepared cyclic AMP phosphodiesterase of a predetermined concentration was added to said substrate solution and the mixture was reaction at 30° C. for 20 minutes, producing tritium 5'-AMP from the tritium cyclic AMP.
The reaction system was then immersed in boiling water for 2 minutes to stop the reaction, and then this reaction solution was cooled in ice water and, for converting the produced tritium 5'-AMP into tritium adenosine, the solution was added with 0.05 ml (1 mg/ml) of snake poison as 5'-nucleotidase and reacted at 30° C. for 10 minutes. The whole amount of this reaction solution was then added to a cation exchange resin (AG 500 W×4, 200-400 meshes, manufactured by Bio-Rad Co., column size: 0.5×1.5 cm), and the produced tritium anodesine alone was allowed to combine, washed with 6 ml of distilled water and eluted with 1.5 ml of 3 N-ammonia water. The whole quantity of the elutant was added with 10 ml of a triton-toluene type scintillator and the produced tritium adenosine was measured by a liquid scintillation counter to determine the phosphodiesterase activity.
In this way, the phosphodiesterase activation value (Vs) of the test compounds of the respective concentrations was determined, and the phosphodiesterase obstruction rate (%) was determined from said activation value (Vs) and control value (Vc) (obtained from water not containing any test compound) from the following formula: [formula]

rabbit platelet [2] = experiment: Collagen-induced aggregation in rabbit platelets (AG-II Aggregometer); type: cell-based
Method in brief: (§1)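 Rabbit citrated PRP, diluted with PPP to 300,000/mm^3 platelets for ADP or 450,000/mm^3 for collagen, was preincubated with compound 1 min at 37° C. before inducer was added. ADP at 7.5×10^-5 M or collagen supernatant in Auren Beronal buffer pH 7.35; transmittance change recorded, percent inhibition derived.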

rabbit platelet [3] = experiment: ADP-induced aggregation in rabbit platelets (AG-II Aggregometer); type: cell-based
Method in brief: as §1

Male mice = experiment: Acute toxicity test, oral administration to mice; type: in vivo
Method: The test compounds were administered orally to the mice and LD50 (mg/kg) of the compounds was determined.

| inhibition at 100 µM ([1]; 10^-4 mole) [%] | inhibition at 10 µM ([1]; 10^-5 mole) [%] | inhibition at 1 µM ([1]; 10^-6 mole) [%] | inhibition at 0.1 µM ([1]; 10^-7 mole) [%] | Structure (SMILES) | Inhibition effect on collagen induced aggregation in rabbit platelet (rabbit platelet [2]; 10^-4 mole) [%] | Inhibition effect on collagen induced aggregation in rabbit platelet (rabbit platelet [2]; 10^-5 mole) [%] | Inhibition effect on ADP-induced aggregation in rabbit platelet (rabbit platelet [3]; 10^-4 mole) [%] | Inhibition effect on ADP-induced aggregation in rabbit platelet (rabbit platelet [3]; 10^-5 mole) [%] | LD50 (Male mice) [mg] |
| --- | --- | --- | --- | --- | --- | --- | --- | --- | --- |
| 98.5 | 85.7 | 67.4 | 3.2 | CC(C)Cn1c(=O)n(C)c(=O)c2[nH]cnc21 [1-Methyl-3-isobutylxanthine, 1-methyl-3-isobutylxanthine, reference compound] |  |  |  |  |  |
|  |  |  |  | O=C1CCc2cc(OCCCC(=O)Nc3c(Cl)cccc3Cl)ccc2N1 [compound 21, 6-[3-(o,o-Dichloroanilinocarbonyl)propoxy]-3,4-dihydrocarbonstyril] | 95.1 | 27.6 | 36.8 | 5.3 | > 1000 |
